Measurements taken from article PMC3804352 (ACS medicinal chemistry letters, 2013).
Entries after “also recorded” stand apart in the source; their conditions may differ. Like-named read-outs stand apart in the source and are kept apart here.

Tests used:
[1] = in mice; cited from earlier work
[2] = in vivo, iv; cited from earlier work
[3] = cited from earlier work
[4] = test system: Plasmodium yoelii; assay: In vivo efficacy in mice infected with Plasmodium yoelii, parasite load by FACS; set-up: species or system Swiss webster female mice
[5] = In vivo pharmacokinetic study, single IV or IP injection to healthy mice
[6] = Stability in mouse serum at 37 °C; assay type: in vitro ADME
[7] = Metabolism by human liver S9 fraction; assay type: in vitro ADME
[8] = Metabolism by human liver microsomes; assay type: in vitro ADME
[9] = Stability in human liver cytosolic fraction; assay type: in vitro ADME; settings: r^2 = 0.24, p = 0.10
[10] = Solubility in aqueous buffers; assay type: physicochemical
[11] = test system: mice; assay: Toxicity to mice in efficacy and PK studies; assay type: in vivo; settings: dosing regime of efficacy study (5-10 mg/kg once daily) and PK study
[12] = assay type: in vivo, mice; settings: at the termination of efficacy trials
[13] = test system: human cancer cells; settings: cited from earlier work
[14] = test system: P. falciparum; settings: read-out: in vitro IC50; cited from earlier work
[15] = test system: parasitemia; settings: cited from earlier work

C[C@H]1Cc2c([nH]c3cc(Cl)c(F)cc23)[C@@]2(N1)C(=O)Nc1ccc(Cl)cc12 [NITD609, spirotetrahydro-β-carboline NITD609]
clearance rate [1]: 9.8 mL/min/kg

C[C@H]1[C@H](OC(=O)CCC(=O)O)O[C@@H]2O[C@@]3(C)CC[C@H]4[C@H](C)CC[C@@H]1[C@@]24OO3 [artesunate]
half-life [2]: less than 10 min

CCN(CC)CCCC(C)Nc1ccnc2cc(Cl)ccc12 (centres unmarked) [chloroquine]
apparent volume of distribution [3]: 200 L/kg

CC1=C2Cc3cc(ccc3O)C(=O)O[C@H](C(C)(C)Br)CC[C@](C)(O)[C@H](Br)CC[C@]2(C)[C@@H](Br)CC1 [compound 1, bromophycolide A]
parasitemia in treated mice ([4]; after the second dose, 10 mg/kg): 10.0 ± 0.5% | final parasitemia (FACS) ([4]; dosed at 10 mg/kg, control 32 ± 2 %): 17 ± 4% | bioavailability ([5]; IP vs IV dosing): good bioavailability | Cp^0 ([5]; IV, 23 mg/kg, plasma): 24000 ± 6000 ng/mL | loss after incubation in mouse serum ([6]; 37 °C, 24 h (r^2 = 0.20, p=0.27)): no significant loss | stability in mouse serum ([6]; over 24 h): stable | metabolism by human liver sub-cellular fractions ([7]; after 4 h): negligible metabolism | half-life ([7]; human, human liver S9 fraction): 9.5 ± 0.8 h | CLint scaled at 24 h, 10 µM ([7]; human, human liver S9 fraction, CLint, S9 fraction with UDPGA): 1.1 ± 0.1 mL/min/kg | CLint scaled at 24 h, 10 µM ([8]; human, human liver microsomes): 1.6 ± 0.5 mL/min/kg | stability in the presence of human microsomes ([8]; summary statement): moderately stable | stability in the presence of the human liver cytosolic fraction [9]: stable | solubility in aqueous buffers [10]: poor solubility | toxicity to mice [11]: lack of mouse toxicity; also recorded: non-toxic | concentration in blood and plasma of infected mice [12]: below the limit of detection | differential selectivity among eukaryotic cell lines [13]: 10 fold | IC50 ([13]; human cancer cells): > 6000 nM

CC[C@H](C)C(=O)O[C@@H]1[C@H]2C(C)=CC(=O)[C@@H](O)[C@]2(C)[C@H]2[C@@H](O)[C@H](O)[C@@]3(C)OC[C@@]24[C@@H]1OC(=O)[C@H](OC(=O)[C@@H](C)CC)[C@@H]34 [simalikalactone E]
IC50 [14]: 24 to 68 nM | reduction of parasitemia in vivo ([15]; 0.5 mg/kg IP dosing): 50% | reduction of parasitemia in vivo ([15]; 1 mg/kg oral dosing): 50%
